Results published in patent publication US20240254138A1, “TRICYCLIC PYRIMIDINES AS CYCLIN-DEPENDENT KINASE 7 (CDK7) INHIBITORS” (JANSSEN PHARMACEUTICA NV, priority 2021, published 2024).

Assays:
[1] = target: CDK7/cyclinH/MAT1 trimeric complex (Homo sapiens, UniProt P50613); assay: In vitro CDK7 assay, potency of irreversible covalent inhibitors (kinact/KI), coupled PK/LDH ADP readout at 340 nm; conditions: for Ki: CDK7 (20 nM enz.) (KI, μM), 20 nM enzyme; for kinact: read-out: CDK7 (20 nM enz.) (kinact, s^−1), 20 nM enzyme; for kinact/KI: read-out: CDK7 (20 nM enz.) (kinact/KI, M^−1*s^−1), 20 nM enzyme
[2] = test system: RNA Polymerase II Serine 5 phosphorylation (Rpb1 CTD, downstream substrate of CDK7) in A549 cells; assay: Imaging-based cellular RNA PolII Ser5 phosphorylation assay in A549 cells; assay type: cell-based, human; conditions: wild-type CDK7, RNA PolII Ser5 phosphorylation, averaged over all measurements; for IC50: Homo sapiens, A549, A549 cells, read-out: CDK7_A549 Wild-type CDK7 (pIC50) (converted)
How it was run: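 A549 cells, seeded 1000/well in DMEM with 1% FBS and cultured 20 h, were treated with compound for 3 h at 37 °C. Ser5-phospho-Rpb1 CTD detected by immunofluorescence imaging after fixation and methanol permeabilization; IC50 from curve fit normalized to DMSO and 10 μM reference-compound controls.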

[3] = test system: RNA Polymerase II Serine 5 phosphorylation in A549 cells overexpressing CDK7-mutant (C312S); assay: Imaging-based cellular RNA PolII Ser5 phosphorylation assay in A549 cells overexpressing CDK7-mutant (C312S); assay type: cell-based, human; conditions: RNA PolII Ser5 phosphorylation, averaged over all measurements; for IC50: Homo sapiens, A549, A549 cells overexpressing CDK7-mutant (C312S), read-out: CDK7_A549 mutant hCDK7(pIC50) (converted)
How it was run: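 A549 cells overexpressing CDK7 C312S (with endogenous wild-type CDK7) were treated with compound for 3 h at 37 °C in 1% FBS medium. Phospho-Rpb1 CTD Ser5 was immunostained after fixation and imaged. IC50 came from curve fit of % control, normalised to DMSO and 10 μM reference-compound controls.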

CDK7/cyclinH/MAT1 trimeric complex, sequence (P50613 whole entry): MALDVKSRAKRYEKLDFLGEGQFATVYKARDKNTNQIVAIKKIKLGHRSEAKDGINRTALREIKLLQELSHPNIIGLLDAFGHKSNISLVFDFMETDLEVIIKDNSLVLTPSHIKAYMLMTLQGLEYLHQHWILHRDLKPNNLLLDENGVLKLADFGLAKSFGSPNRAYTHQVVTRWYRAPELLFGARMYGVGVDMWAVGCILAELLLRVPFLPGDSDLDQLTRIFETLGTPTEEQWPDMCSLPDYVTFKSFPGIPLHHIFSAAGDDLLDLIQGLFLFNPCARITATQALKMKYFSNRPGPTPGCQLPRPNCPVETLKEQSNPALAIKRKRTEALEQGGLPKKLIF
CDK7/cyclinH/MAT1 trimeric complex, sequence (P51946 whole entry partner): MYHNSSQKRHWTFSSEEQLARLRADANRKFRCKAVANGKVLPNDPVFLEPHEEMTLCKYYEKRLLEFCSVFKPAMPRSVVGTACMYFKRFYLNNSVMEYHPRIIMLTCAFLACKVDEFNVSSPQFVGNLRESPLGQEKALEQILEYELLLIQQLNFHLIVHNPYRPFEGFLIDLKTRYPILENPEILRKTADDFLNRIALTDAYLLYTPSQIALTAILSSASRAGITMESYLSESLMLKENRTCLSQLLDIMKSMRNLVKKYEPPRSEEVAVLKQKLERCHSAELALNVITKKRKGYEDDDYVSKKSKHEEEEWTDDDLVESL
CDK7/cyclinH/MAT1 trimeric complex, sequence (P51948 whole entry partner): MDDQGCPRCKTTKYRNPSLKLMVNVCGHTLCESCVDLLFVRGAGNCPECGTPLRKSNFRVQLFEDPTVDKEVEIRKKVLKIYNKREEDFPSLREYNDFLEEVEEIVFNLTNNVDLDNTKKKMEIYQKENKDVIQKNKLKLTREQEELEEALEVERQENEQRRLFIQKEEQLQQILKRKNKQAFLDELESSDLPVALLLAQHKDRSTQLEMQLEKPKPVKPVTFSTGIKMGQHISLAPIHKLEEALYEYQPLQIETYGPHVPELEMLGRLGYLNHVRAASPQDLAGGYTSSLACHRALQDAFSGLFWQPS

Ki [1] | kinact [1] | kinact/KI [1] | IC50 [2] | IC50 [3] | CDK7_A549 Wild-type CDK7 (pIC50) ([2]; A549 cells) | CDK7_A549 mutant hCDK7(pIC50) ([3]; A549 cells overexpressing CDK7-mutant (C312S)) | Compound
2.09 µM | 4.59e-05 s⁻¹ | 22 M⁻¹ s⁻¹ | 501 nM | > 10000 nM | – | – | C=CC(=O)N1CCC(N2CC(c3cc(F)c4c(c3)Nc3nccc(C5CCOCC5)c3[C@H](C)O4)C2)CC1 (single isomer, unassigned) [Compound 155]
0.0731 µM | 5.78e-05 s⁻¹ | 791 M⁻¹ s⁻¹ | 56.2 nM | > 10000 nM | – | – | C=CC(=O)N1CC[C@H](N2CCC(c3cc4c(c(C)n3)OCc3c(N5CCOCC5)ccnc3N4)CC2)C1 (single isomer, unassigned) [Compound 183]
0.0446 µM | 6.03e-05 s⁻¹ | 1350 M⁻¹ s⁻¹ | 32.4 nM | > 10000 nM | – | – | C=CC(=O)N1CC[C@@H](N2CCC(c3cc4c(c(C)n3)OCc3c(N5CCOCC5)ccnc3N4)CC2)C1 (single isomer, unassigned) [Compound 184]
3.09 µM | 4.72e-05 s⁻¹ | 15.3 M⁻¹ s⁻¹ | 4370 nM | > 10000 nM | – | – | C#CCCN(C)C/C=C/C(=O)N1CC(N2CCC(c3ccc4c(c3)Nc3nccc(N5CCOCC5)c3[C@@H](C)O4)CC2)C1 (single isomer, unassigned) [Compound 191]
0.0907 µM | 4.14e-05 s⁻¹ | 456 M⁻¹ s⁻¹ | 79.4 nM | > 10000 nM | – | – | C=CC(=O)N1CC[C@H](N2CC(c3cc(C)c4c(c3)Nc3nccc(-c5cnn(C)c5)c3CO4)C2)C1 (single isomer, unassigned) [Compound 192]
0.063 µM | 3.66e-05 s⁻¹ | 581 M⁻¹ s⁻¹ | 69.2 nM | > 10000 nM | – | – | C=CC(=O)N1CC[C@H](N2CC(c3cc(C)c4c(c3)Nc3nccc(C5CCOCC5)c3CO4)C2)C1 (single isomer, unassigned) [Compound 193]
0.0892 µM | 4.72e-05 s⁻¹ | 530 M⁻¹ s⁻¹ | 58.9 nM | > 10000 nM | – | – | C=CC(=O)N1CC[C@@H](N2CC(c3cc(C)c4c(c3)Nc3nccc(-c5cnn(C)c5)c3CO4)C2)C1 (single isomer, unassigned) [Compound 194]
0.0924 µM | 4.58e-05 s⁻¹ | 496 M⁻¹ s⁻¹ | 105 nM | > 3980 nM | – | – | C=CC(=O)N1CC[C@@H](N2CC(c3cc(C)c4c(c3)Nc3nccc(C5CCOCC5)c3CO4)C2)C1 (single isomer, unassigned) [Compound 196]
0.449 µM | 3.63e-05 s⁻¹ | 80.8 M⁻¹ s⁻¹ | 288 nM | > 10000 nM | – | – | C=CC(=O)N1CC[C@H](N2CC(c3cc4c(c(C)n3)OCc3c(-c5cnn(C)c5)ccnc3N4)C2)C1 (single isomer, unassigned) [Compound 199]
0.352 µM | 3.71e-05 s⁻¹ | 105 M⁻¹ s⁻¹ | 339 nM | > 10000 nM | – | – | C=CC(=O)N1CC[C@@H](N2CC(c3cc4c(c(C)n3)OCc3c(-c5cnn(C)c5)ccnc3N4)C2)C1 (single isomer, unassigned) [Compound 204]
7.29 µM | 7.18e-05 s⁻¹ | 9.85 M⁻¹ s⁻¹ | – | – | ~5 | <5 | C#Cc1cc2c(cc1C1CCN(C3CN(C(=O)C=C)C3)CC1)Nc1nccc(N3CCOCC3)c1[C@@H](C)O2 (single isomer, unassigned) [Compound 211]
0.311 µM | 6.39e-05 s⁻¹ | 206 M⁻¹ s⁻¹ | 200 nM | > 10000 nM | – | – | C=CC(=O)N1CC(N2CCO[C@H](c3cc(C)c4c(c3)Nc3nccc(C5CCOCC5)c3CO4)CC2)C1 (single isomer, unassigned) [Compound 219]
0.512 µM | 7.79e-05 s⁻¹ | 152 M⁻¹ s⁻¹ | 282 nM | > 10000 nM | – | – | C=CC(=O)N1CC(N2CCO[C@@H](c3cc(C)c4c(c3)Nc3nccc(C5CCOCC5)c3CO4)CC2)C1 (single isomer, unassigned) [Compound 221]
– | – | 3 M⁻¹ s⁻¹ | 3980 nM | > 10000 nM | – | – | C=CC(=O)N1CC(N2CC[C@H](c3cc4c(c(C)n3)O[C@H](C)c3c(N5CCOCC5)ccnc3N4)C2)C1 (single isomer, unassigned) [Compound 224]
